Experimental data taken from patent US9840509B2, “Heterocyclic compounds” (CADILA HEALTHCARE LIMITED, priority 2014, dated 2017).

Experiments:
[1] = molecular target: T1, recombinant purified human BTK (Homo sapiens, UniProt Q06187); assay: In vitro BTK kinase assay on ADP Glo platform; type: biochemical; conditions: 2 hr room temperature, read-out: In-vitro BTK inhibitory activity: IC50
T1 construct: purchased SignalChem, USA
Procedure: Testing of Compounds of the Invention Biological Studies: In vitro BTK Inhibitory Activity Assay:
In vitro BTK inhibitory activity of test compounds were screened using BTK kinase assay on ADP Glo platform (Li, H., Totoritis, R. D., Lor, L. A., Schwartz, B., Caprioli, P., Jurewicz, A. J and Zhang, G., Assay Drug Dev. Technol., 2009, 7(6), 598-605). Briefly, fixed amount of recombinant purified human BTK (3 ng/reaction from SignalChem, USA) were incubated with increasing concentration of test compounds, in 1× kinase reaction buffer (40 mM Tris-Cl, pH7.5, 20 mM MgCl2, 2 mM MnCl2, 0.1 mg/ml BSA and 50 μM DTT). Enzymatic reaction was initiated by adding a substrate cocktail containing 50 µM of ATP (final concentration) and […] of polyGln4Tyr1 (Signal Chem) in total 25 μl of reaction, in round bottom white 96 well plate. The reaction mixture was incubated at room temperature for 2 hr. After 2 hr of incubation, 10 μl of the reaction mix was mixed with […] of ADP Glo reagent, in another round bottom white 96 well plate and incubated at room temperature for 40 min. This was followed by addition of kinase detection reagent (20 μl per reaction) and incubation at room temperature for 30 min. Finally, plate was read for luminescence at an integration time of 500 millisecond per well. Data were plotted taking Enzyme with no inhibitor set as the 100% kinase activity and for dose response curve, % Kinase activity was plotted against conc on Log scale and IC50 was determined by non linear curve fitting method using GraphPad Prism software 6. The in vitro BTK inhibitory activity (IC50) for representative compounds are listed in […]

CYP 1A2 = molecular target: T2, CYP 1A2 (Homo sapiens, UniProt P05177); assay: CYP inhibition in human liver microsomes, 1A2; type: in vitro ADME; conditions: pH 7.4, @ 10 μM concn
T2 construct: from tissue; host or cells: human liver microsomes
T2 sequence (P05177 1-516): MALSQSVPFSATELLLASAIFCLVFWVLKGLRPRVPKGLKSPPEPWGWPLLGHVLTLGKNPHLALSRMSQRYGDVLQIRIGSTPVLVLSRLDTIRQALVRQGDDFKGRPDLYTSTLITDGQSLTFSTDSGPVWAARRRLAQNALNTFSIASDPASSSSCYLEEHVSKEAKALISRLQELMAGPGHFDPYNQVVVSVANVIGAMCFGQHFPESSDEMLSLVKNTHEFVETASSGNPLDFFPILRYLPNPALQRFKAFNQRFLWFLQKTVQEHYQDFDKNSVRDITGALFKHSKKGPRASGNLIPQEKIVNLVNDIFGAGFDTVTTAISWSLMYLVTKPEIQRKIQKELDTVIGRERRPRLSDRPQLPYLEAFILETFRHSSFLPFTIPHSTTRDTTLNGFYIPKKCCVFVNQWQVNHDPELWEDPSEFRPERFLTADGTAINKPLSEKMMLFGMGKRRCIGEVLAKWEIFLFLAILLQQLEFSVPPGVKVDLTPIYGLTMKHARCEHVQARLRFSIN
Procedure: (§1) CYP Inhibition Studies: CYP inhibition studies were performed with test compounds, at two concentrations ([…] and 10 μM), using human liver microsomes (Yao, M., Zhu, M., Sinz, M. W., Zhang, H., Humphreys, W. F., Rodrigues, A. D and Dai, R., Journal of Pharmaceutical and Biomedical Analysis, 2007, 44, 211-223; Walsky, R. L and Obach, R. S., Drug Metab. Dispos., 2004, 32, 647-660). Human liver microsomes were mixed with 100 mM phosphate buffer (pH 7.4) and probe substrate and warmed to […] in microcentrifuge tubes. Aliquots of this mixture (499 μL) were transferred to each pre-labeled microcentrifuge tubes, followed by addition of the 1 μL of inhibitors (test compound/CYP-specific positive control inhibitor) or control solvent (DMSO). Aliquots of this mixture (90 μL) were transferred to each pre-labeled microcentrifuge tubes in duplicate. Final solvent concentrations were 0.2% (v/v) or less. Incubations were commenced with the addition of 10 μL NADPH stock (assay concentration, 1 mM) to a final incubation volume of 100 μL and incubated in shaking water bath (at 37° C. and 100 rpm), for the period defined in Tables 1. Incubations were terminated by addition of 400 μL of termination solvent (CH3CN) containing internal standard. The terminated samples were vortex-mixed, centrifuged at 10000 rpm for 5 min and supernatant transferred into HPLC vials for LC-MS/MS analysis to monitor metabolites produced by marker CYP reactions. […] Animals

CYP 2C8 = molecular target: T3, CYP 2C8 (Homo sapiens, UniProt P10632); assay: CYP inhibition in human liver microsomes, 2C8; type: in vitro ADME; conditions: pH 7.4, @ 10 μM concn
T3 construct: from tissue; host or cells: human liver microsomes
T3 sequence (P10632 1-490): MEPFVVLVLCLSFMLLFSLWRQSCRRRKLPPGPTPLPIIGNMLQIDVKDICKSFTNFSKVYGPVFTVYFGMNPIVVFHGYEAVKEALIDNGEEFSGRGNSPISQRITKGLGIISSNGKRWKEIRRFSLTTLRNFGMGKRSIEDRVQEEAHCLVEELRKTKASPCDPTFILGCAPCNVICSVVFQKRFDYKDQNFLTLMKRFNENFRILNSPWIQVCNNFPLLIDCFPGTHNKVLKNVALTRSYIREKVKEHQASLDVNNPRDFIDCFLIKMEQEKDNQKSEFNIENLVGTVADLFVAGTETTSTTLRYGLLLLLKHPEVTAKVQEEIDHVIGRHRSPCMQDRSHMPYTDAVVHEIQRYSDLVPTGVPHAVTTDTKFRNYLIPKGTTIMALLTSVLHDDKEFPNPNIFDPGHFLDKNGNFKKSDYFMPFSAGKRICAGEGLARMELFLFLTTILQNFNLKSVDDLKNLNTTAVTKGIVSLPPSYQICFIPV
Procedure: as §1

CYP 2C9 = molecular target: T4, CYP 2C9 (Homo sapiens, UniProt P11712); assay: CYP inhibition in human liver microsomes, 2C9; type: in vitro ADME; conditions: pH 7.4, @ 10 μM concn
T4 construct: from tissue; host or cells: human liver microsomes
Procedure: as §1

CYP 2C19 = molecular target: T5, CYP 2C19 (Homo sapiens, UniProt P33261); assay: CYP inhibition in human liver microsomes, 2C19; type: in vitro ADME; conditions: pH 7.4, @ 10 μM concn
T5 construct: from tissue; host or cells: human liver microsomes
Procedure: as §1

CYP 2D6 = molecular target: T6, CYP 2D6 (Homo sapiens, UniProt P10635); assay: CYP inhibition in human liver microsomes, 2D6; type: in vitro ADME; conditions: pH 7.4, @ 10 μM concn
T6 construct: from tissue; host or cells: human liver microsomes
Procedure: as §1

CYP 3A4 = molecular target: T7, CYP 3A4 (Homo sapiens, UniProt P08684); assay: CYP inhibition in human liver microsomes, 3A4; type: in vitro ADME; conditions: pH 7.4, @ 10 μM concn
T7 construct: from tissue; host or cells: human liver microsomes
Procedure: as §1

T5 sequence (P33261 whole entry): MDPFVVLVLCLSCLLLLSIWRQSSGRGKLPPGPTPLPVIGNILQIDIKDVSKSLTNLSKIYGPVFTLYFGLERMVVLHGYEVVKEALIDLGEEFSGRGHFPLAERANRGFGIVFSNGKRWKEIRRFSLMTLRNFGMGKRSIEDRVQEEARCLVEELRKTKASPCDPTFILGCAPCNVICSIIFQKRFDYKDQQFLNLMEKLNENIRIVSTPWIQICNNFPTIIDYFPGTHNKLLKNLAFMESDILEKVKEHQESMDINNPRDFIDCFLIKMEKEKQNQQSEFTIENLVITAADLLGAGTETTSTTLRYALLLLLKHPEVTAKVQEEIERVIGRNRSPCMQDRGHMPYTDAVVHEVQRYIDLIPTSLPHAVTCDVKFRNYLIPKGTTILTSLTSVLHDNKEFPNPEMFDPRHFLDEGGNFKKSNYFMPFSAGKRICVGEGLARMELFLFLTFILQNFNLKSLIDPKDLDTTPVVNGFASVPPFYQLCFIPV
T1 sequence (Q06187 whole entry): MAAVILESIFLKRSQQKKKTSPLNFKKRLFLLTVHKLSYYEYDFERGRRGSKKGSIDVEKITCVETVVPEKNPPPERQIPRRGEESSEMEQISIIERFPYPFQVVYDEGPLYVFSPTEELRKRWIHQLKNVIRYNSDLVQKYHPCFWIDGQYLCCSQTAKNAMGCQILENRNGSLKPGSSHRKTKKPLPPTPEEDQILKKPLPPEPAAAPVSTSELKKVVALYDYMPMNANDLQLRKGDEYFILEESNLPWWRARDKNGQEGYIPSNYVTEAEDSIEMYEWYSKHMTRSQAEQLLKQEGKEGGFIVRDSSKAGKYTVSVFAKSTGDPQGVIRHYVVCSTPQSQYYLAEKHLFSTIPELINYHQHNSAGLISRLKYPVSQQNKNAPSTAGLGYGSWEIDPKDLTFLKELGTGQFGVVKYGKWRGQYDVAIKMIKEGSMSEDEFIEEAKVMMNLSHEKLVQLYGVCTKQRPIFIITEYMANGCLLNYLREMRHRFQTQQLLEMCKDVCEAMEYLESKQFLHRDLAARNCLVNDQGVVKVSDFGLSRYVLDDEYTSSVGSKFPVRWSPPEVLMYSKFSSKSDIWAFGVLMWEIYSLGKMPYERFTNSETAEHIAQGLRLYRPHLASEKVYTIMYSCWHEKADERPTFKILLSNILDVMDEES
T6 sequence (P10635 whole entry): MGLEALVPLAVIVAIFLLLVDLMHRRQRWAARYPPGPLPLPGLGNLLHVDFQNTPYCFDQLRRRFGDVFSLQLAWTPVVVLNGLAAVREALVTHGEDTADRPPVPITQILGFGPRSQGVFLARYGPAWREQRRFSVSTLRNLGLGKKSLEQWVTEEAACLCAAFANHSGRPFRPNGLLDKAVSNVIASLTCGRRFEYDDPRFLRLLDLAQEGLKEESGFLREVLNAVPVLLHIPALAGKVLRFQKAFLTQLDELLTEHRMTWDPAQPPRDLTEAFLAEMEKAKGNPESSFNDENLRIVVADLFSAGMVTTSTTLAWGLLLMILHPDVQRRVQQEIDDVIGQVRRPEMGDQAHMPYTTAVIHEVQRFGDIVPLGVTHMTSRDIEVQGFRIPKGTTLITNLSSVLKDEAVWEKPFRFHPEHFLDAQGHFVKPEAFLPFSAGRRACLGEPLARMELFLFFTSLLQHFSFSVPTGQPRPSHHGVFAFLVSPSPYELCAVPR
T4 sequence (P11712 whole entry): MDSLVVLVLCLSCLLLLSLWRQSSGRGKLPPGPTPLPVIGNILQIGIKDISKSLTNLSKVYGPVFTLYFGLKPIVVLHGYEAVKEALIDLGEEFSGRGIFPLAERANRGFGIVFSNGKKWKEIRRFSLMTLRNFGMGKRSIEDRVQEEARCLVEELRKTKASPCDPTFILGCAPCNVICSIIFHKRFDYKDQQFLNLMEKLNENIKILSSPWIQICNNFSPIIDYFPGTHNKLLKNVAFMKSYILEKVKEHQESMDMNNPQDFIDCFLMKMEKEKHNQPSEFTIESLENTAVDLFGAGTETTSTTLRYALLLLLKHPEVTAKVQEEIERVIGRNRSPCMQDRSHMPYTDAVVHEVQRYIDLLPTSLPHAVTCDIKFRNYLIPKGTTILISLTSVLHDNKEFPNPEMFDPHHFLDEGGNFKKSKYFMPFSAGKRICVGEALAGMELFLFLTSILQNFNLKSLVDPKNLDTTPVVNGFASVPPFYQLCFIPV
T7 sequence (P08684 whole entry): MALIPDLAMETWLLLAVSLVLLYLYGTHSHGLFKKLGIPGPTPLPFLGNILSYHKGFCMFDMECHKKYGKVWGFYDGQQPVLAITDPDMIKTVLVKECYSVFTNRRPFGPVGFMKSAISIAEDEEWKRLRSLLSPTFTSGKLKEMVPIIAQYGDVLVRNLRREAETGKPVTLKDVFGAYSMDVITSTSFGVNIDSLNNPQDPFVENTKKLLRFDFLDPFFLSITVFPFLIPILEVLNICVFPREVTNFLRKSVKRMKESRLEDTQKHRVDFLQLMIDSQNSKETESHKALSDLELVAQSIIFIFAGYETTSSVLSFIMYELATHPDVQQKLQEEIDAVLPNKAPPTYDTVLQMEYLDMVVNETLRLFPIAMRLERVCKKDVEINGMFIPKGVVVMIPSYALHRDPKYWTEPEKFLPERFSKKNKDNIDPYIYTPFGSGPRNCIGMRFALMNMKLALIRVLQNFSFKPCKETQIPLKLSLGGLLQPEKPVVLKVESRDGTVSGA

| IC50 [1] | inhibition at 10 μM (CYP 1A2) | inhibition at 10 μM (CYP 2C8) | inhibition at 10 μM (CYP 2C9) | inhibition at 10 μM (CYP 2C19) | inhibition at 10 μM (CYP 2D6) | inhibition at 10 μM (CYP 3A4) | SMILES |
| --- | --- | --- | --- | --- | --- | --- | --- |
| 1.4 nM | < 50% | < 50% | < 50% | < 50% | < 50% | < 50% | CN(C)C/C=C/C(=O)N1CC2CC(n3nc(-c4ccc(C(=O)Nc5ccccn5)cc4)c4c(N)ncnc43)CC2C1 (stereo not shown) [Compound 44, (E)-4-(4-amino-1-(2-(4-(dimethylamino)but-2-enoyl)octahydrocyclopenta [c]pyrrol-5-yl)-1H-pyrazolo[3,4-d]pyrimidin-3-yl)-N-(pyridin-2-yl) benzamide] |
| 4 nM | < 50% | < 50% | < 50% | > 50% | < 50% | < 50% | C=CC(=O)N1CC2CC(n3nc(-c4ccc5c(c4)oc4ccccc45)c4c(N)ncnc43)CC2C1 (stereo not shown) [Compound 8, 1-(5-(4-amino-3-(dibenzo[b,d]furan-3-yl)-1H-pyrazolo[3,4-d]pyrimidin-1-yl)hexahydrocyclopenta[c]pyrrol-2(1H)-yl)prop-2-en-1-one] |
| 1.8 nM | < 50% | < 50% | < 50% | > 50% | < 50% | < 50% | C=CC(=O)N1CC2CC(n3nc(-c4ccc(C(=O)Nc5ccccn5)cc4)c4c(N)ncnc43)CC2C1 (stereo not shown) [Compound 13, 4-(1-(2-acryloyloctahydrocyclopenta[c]pyrrol-5-yl)-4-amino-1H-pyrazolo[3,4-d]pyrimidin-3-yl)-N-(pyridin-2-yl)benzamide] |
| 10 nM | < 50% | < 50% | < 50% | < 50% | < 50% | > 50% | CN(C)C/C=C/C(=O)N1CC2CC(n3nc(-c4ccc(Oc5cccnc5)cc4)c4c(N)ncnc43)CC2C1 (stereo not shown) [Compound 53, (E)-1-(5-(4-amino-3-(4-(pyridin-3-yloxy)phenyl)-1H-pyrazolo[3,4-d]pyrimidin-1-yl)hexahydrocyclopenta[c]pyrrol-2(1H)-yl)-4-(dimethylamino)but-2-en-1-one] |
| 2.5 nM | < 50% | < 50% | < 50% | < 50% | < 50% | < 50% | CN(C)C/C=C/C(=O)N1CC2CC(n3nc(-c4ccc(Oc5ccccc5)cc4)c4c(N)ncnc43)CC2C1 (stereo not shown) [Compound 24, (E)-1-(5-(4-amino-3-(4-phenoxyphenyl)-1H-pyrazolo[3,4-d]pyrimidin-1-yl)hexahydrocyclopenta[c]pyrrol-2(1H)-yl)-4-(dimethylamino)but-2-en-1-one] |
| 17 nM | < 50% | < 50% | < 50% | < 50% | > 50% | < 50% | C=CC(=O)N1CC2CC(n3nc(-c4ccc(NC(=O)c5ccccc5)cc4)c4c(N)ncnc43)CC2C1 (stereo not shown) [Compound 38, N-(4-(1-(2-acryloyloctahydrocyclopenta[c]pyrrol-5-yl)-4-amino-1H-pyrazolo[3,4-d]pyrimidin-3-yl)phenyl)benzamide] |
| 10 nM | > 50% | < 50% | < 50% | < 50% | < 50% | < 50% | Cc1ccnc(NC(=O)c2ccc(-c3nn(C4CC5CN(C(=O)/C=C/CN(C)C)CC5C4)c4ncnc(N)c34)cc2)c1 (stereo not shown) [Compound 45, (E)-4-(4-amino-1-(2-(4-(dimethylamino)but-2-enoyl)octahydrocyclopenta[c]pyrrol-5-yl)-1H-pyrazolo[3,4-d]pyrimidin-3-yl)-N-(4-methylpyridin-2-yl) benzamide] |
| 2.5 nM | < 50% | < 50% | < 50% | < 50% | < 50% | < 50% | CN(C)C/C=C/C(=O)N1CC2CC(n3nc(-c4ccc(C(=O)Nc5cnccn5)cc4)c4c(N)ncnc43)CC2C1 (stereo not shown) [Compound 49, (E)-4-(4-amino-1-(2-(4-(dimethylamino)but-2-enoyl)octahydrocyclopenta [c]pyrrol-5-yl)-1H-pyrazolo[3,4-d]pyrimidin-3-yl)-N-(pyrazin-2-yl)benzamide] |
| 1.1 nM | < 50% | < 50% | < 50% | < 50% | < 50% | < 50% | C=CC(=O)N1CC2CC(n3nc(-c4ccc(-c5nnc(-c6ccccn6)o5)cc4)c4c(N)ncnc43)CC2C1 (stereo not shown) [Compound 26, 1-(5-(4-amino-3-(4-(5-(pyridin-2-yl)-1,3,4-oxadiazol-2-yl)phenyl)-1H-pyrazolo[3,4-d]pyrimidin-1-yl)hexahydrocyclopenta[c]pyrrol-2(1H)-yl)prop-2-en-1-one] |
| 1.6 nM | < 50% | < 50% | < 50% | < 50% | < 50% | < 50% | C=CC(=O)N1CC2CC(n3c(Br)c(-c4ccc(Oc5ccccc5)cc4)c4c(N)ncnc43)CC2C1 (stereo not shown) [Compound 27, 1-(5-(4-amino-6-bromo-5-(4-phenoxyphenyl)-7H-pyrrolo[2,3-d]pyrimidin-7-yl)hexahydrocyclopenta[c]pyrrol-2(1H)-yl)prop-2-en-1-one] |
